Measured values: patent US9840481B2, “Allosteric modulators of nicotinic acetylcholine receptors” (MERCK SHARP & DOHME CORP., priority 2016, dated 2017)
Like-named read-outs stand apart in the source and are kept apart here.

Target: T1, human α7 nAChR stably expressed in a HEK cell line (with human RIC-3) (Homo sapiens, UniProt P36544)
T1 construct: PrecisION hnAChR α7/RIC-3
Assay: Automated patch-clamp electrophysiology functional assay (Assay A), IonFlux HT, whole-cell population patch
Format: cell-based
In short: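 Whole-cell population patch clamp (IonFlux HT) used HEK cells stably co-expressing human α7 and RIC-3, held at −60 mV at room temperature. Compounds were applied alone (agonism) or with 40 μM acetylcholine (potentiation), three ascending concentrations per recording. Currents were quantified relative to a 40 μM acetylcholine reference response, giving EC50.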

[1] = automated patch-clamp electrophysiology functional assay (Assay A), potency class by EC50, read-out: α7 nAChR Potency
[2] = electrophysiology EC50, HEK cells expressing human α7/RIC-3, 40 μM acetylcholine, holding potential −60 mV, room temperature, read-out: α7 nAChR EC50

T1 sequence (P36544 23-502): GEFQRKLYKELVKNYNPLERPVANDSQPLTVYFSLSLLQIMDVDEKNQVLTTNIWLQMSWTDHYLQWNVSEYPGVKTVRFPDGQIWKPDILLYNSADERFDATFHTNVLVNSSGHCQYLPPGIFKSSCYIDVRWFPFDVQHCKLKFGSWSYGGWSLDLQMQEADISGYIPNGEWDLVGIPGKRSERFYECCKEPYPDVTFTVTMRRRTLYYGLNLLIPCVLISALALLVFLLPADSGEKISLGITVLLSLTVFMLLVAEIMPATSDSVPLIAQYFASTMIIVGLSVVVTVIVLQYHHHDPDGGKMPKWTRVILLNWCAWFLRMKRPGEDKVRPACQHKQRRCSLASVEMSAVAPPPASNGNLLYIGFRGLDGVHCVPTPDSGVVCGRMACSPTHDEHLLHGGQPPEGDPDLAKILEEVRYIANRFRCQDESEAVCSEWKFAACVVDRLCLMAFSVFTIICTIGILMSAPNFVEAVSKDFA

EC50 [1] | EC50 [2] | Compound
500 to 5000 nM | 660 nM | CC1(C)[C@H](c2ccc(S(N)(=O)=O)cc2)[C@H]1c1nc(C2CCCCC2)no1 [Example 20, 4-((1R,3R)-3-(3-Cyclohexyl-1,2,4-oxadiazol-5-yl)-2,2-dimethylcyclopropyl)benzenesulfonamide]
500 to 5000 nM | 810 nM | NS(=O)(=O)c1ccc([C@@H]2C[C@H]2c2nc(Cc3ccc(F)cc3F)no2)cc1 [Example D26]
500 to 5000 nM | 1200 nM | CC1(C)[C@@H](c2ccc(S(N)(=O)=O)cc2)[C@@H]1c1noc(-c2ccc(C#N)cc2)n1 [Example H12]
500 to 5000 nM | 740 nM | CC1(C)[C@@H](c2ccc(S(N)(=O)=O)cc2)[C@@H]1c1nnc(-c2cccc(F)c2)o1 [Example G3]
500 to 5000 nM | 1200 nM | CC1(C)[C@H](c2ccc(S(N)(=O)=O)cc2)[C@H]1c1nc(C2CCc3cc(F)ccc32)no1 (some centres unmarked) [Example B14]
500 to 5000 nM | 4800 nM | NS(=O)(=O)c1ccc([C@H]2C[C@@H]2c2cnc(-c3ccccc3)o2)cc1 [Example L2]
500 to 5000 nM | 2400 nM | CC1(C)[C@H](c2ccc(S(N)(=O)=O)cc2)[C@H]1c1nc(C2CC2)c(C2CC2)o1 [Example 31, 4-[(1R,3R)-3-(4,5-Dicyclopropyl-1,3-oxazol-2-yl)-2,2-dimethylcyclopropyl]benzenesulfonamide]
500 to 5000 nM |  | CC1(C)[C@@H](c2ccc(S(N)(=O)=O)cc2)[C@@H]1c1noc(-c2cccnc2C(F)(F)F)n1 [Example I21]
100 to 500 nM |  | CC1(C)[C@@H](c2ccc(S(N)(=O)=O)cc2)[C@@H]1c1noc(-c2ccc3nc(O)sc3c2)n1 [Example I32]
500 to 5000 nM | 1100 nM | CC1(C)[C@@H](c2ccc(S(N)(=O)=O)cc2)[C@@H]1c1nnc(-c2cc(F)ccc2C(F)(F)F)o1 [Example G6]
500 to 5000 nM |  | CC1(C)[C@H](c2ccc(S(N)(=O)=O)cc2)[C@H]1c1noc(C2CCCCC2)n1 [Example L16]
≤ 100 nM | 93 nM | NS(=O)(=O)c1ccc([C@@H]2C[C@H]2c2nc(-c3ccc(F)cc3)no2)cc1 [Example C14]
500 to 5000 nM |  | CCc1coc([C@@H]2C[C@H]2c2ccc(S(N)(=O)=O)cc2)n1 [Example K6]
500 to 5000 nM | 4400 nM | CC1(C)C(c2ccc(S(N)(=O)=O)cc2)C1c1noc(C2CC3CN(C4CCCC4)C(=O)C3C2)n1 (centres unmarked) [Example I24]
500 to 5000 nM | 4100 nM | Cc1ccc(F)cc1-c1noc([C@H]2[C@H](c3ccc(S(N)(=O)=O)cc3)C2(C)C)n1 [Example 1, 4-((1S,3S)-3-(3-(5-Fluoro-2-methylphenyl)-1,2,4-oxadiazol-5-yl)-2,2-dimethylcyclopropyl)-benzenesulfonamide]
500 to 5000 nM |  | CC1(C)[C@@H](c2ccc(S(N)(=O)=O)cc2)[C@@H]1c1noc(CCC2CC2)n1 [Example I33]
500 to 5000 nM | 950 nM | CC1(C)[C@@H](c2ccc(S(N)(=O)=O)cc2)[C@@H]1c1nnc(-c2c(F)cccc2C(F)(F)F)o1 [Example G17]
500 to 5000 nM | 1800 nM | CC1(C)[C@@H](c2ccc(S(N)(=O)=O)cc2)[C@@H]1c1noc(C2CCN(C3CC3)CC2)n1 [Example I9]
500 to 5000 nM | 2400 nM | CC1(C)[C@@H](c2ccc(S(N)(=O)=O)cc2)[C@@H]1c1noc(-c2cc(N3CCOC3=O)ccc2F)n1 [Example H7]

EC50 [1] | EC50 [2] | Compound
5000 to 50000 nM |  | CC(c1nc([C@H]2[C@H](c3ccc(S(N)(=O)=O)cc3)C2(C)C)no1)n1ccnc1 (some centres unmarked) [Example I11]
100 to 500 nM | 500 nM | NS(=O)(=O)c1ccc([C@@H]2C[C@H]2c2ncc(-c3ccccc3)o2)cc1 [Example 8, 4-[(1R,2R)-2-(5-Phenyl-1,3-oxazol-2-yl)cyclopropyl]benzenesulfonamide]
100 to 500 nM | 370 nM | CC1(C)[C@@H](c2ccc(S(N)(=O)=O)cc2)[C@@H]1c1nc(-c2ccccc2)no1 [Example C4]
100 to 500 nM | 260 nM | CC1(C)[C@@H](c2ccc(S(N)(=O)=O)cc2)[C@@H]1c1noc(-c2ccccc2)n1 [Example H1]
5000 to 50000 nM | 5400 nM | CC1(C)[C@@H](c2ccc(S(N)(=O)=O)cc2)[C@@H]1c1noc(-c2cc3sccc3[nH]2)n1 [Example I22]
500 to 5000 nM | 710 nM | CC1(C)[C@@H](c2ccc(S(N)(=O)=O)cc2)[C@@H]1c1noc(C2CC2)n1 [Example I25]
100 to 500 nM | 430 nM | NS(=O)(=O)c1ccc([C@@H]2C[C@H]2c2nc(-c3ccccc3)co2)cc1 [Example 9, 4-[(1R,2R)-2-(4-Phenyl-1,3-oxazol-2-yl)cyclopropyl]benzenesulfonamide]
100 to 500 nM |  | NS(=O)(=O)c1ccc([C@@H]2C[C@H]2c2ncc(-c3cccc(F)c3)s2)cc1 [Example K20]
500 to 5000 nM | 1600 nM | NS(=O)(=O)c1ccc([C@@H]2C[C@H]2c2cn(-c3cccc(F)c3)nn2)cc1 [Example 26, 4-{(1R,2R)-2-[1-(3-Fluorophenyl)-1H-1,2,3-triazol-4-yl]cyclopropyl}benzenesulfonamide]
500 to 5000 nM | 1200 nM | NS(=O)(=O)c1ccc([C@@H]2[C@@H](c3nc(C4CCC4)no3)C2(F)F)cc1 [Example B18]
100 to 500 nM | 460 nM | CC1(C)[C@H](c2ccc(S(N)(=O)=O)cc2)[C@H]1c1cc(-c2ccccc2)no1 [Example 11, 4-[(1R,3R)-2,2-Dimethyl-3-(3-phenylisoxazol-5-yl)cyclopropyl]benzenesulfonamide]
500 to 5000 nM |  | CC1(C)[C@H](c2ccc(S(N)(=O)=O)cc2)[C@H]1c1noc(C2(C(F)(F)F)CC2)n1 [Example L19]
≤ 100 nM | 71 nM | Cc1sc([C@@H]2C[C@H]2c2ccc(S(N)(=O)=O)cc2)nc1-c1ccccc1 [Example 15, 4-[(1R,2R)-2-(5-Methyl-4-phenyl-1,3-thiazol-2-yl)cyclopropyl]benzenesulfonamide]
500 to 5000 nM |  | NS(=O)(=O)c1ccc([C@@H]2C[C@H]2c2nc(-c3cccc(Br)c3)no2)cc1 [Example C10]
500 to 5000 nM | 670 nM | NS(=O)(=O)c1ccc([C@@H]2C[C@H]2c2nc(-c3ccccc3)cs2)cc1 [Example K9]
100 to 500 nM | 180 nM | CC1(C)[C@H](c2ccc(S(N)(=O)=O)cc2)[C@H]1c1nnc(-c2ccc(F)cc2F)s1 [Example 5, 4-{(1R,3R)-3-[5-(2,4-Difluorophenyl)-1,3,4-thiadiazol-2-yl]-2,2-dimethylcyclopropyl}benzenesulfonamide]
100 to 500 nM |  | Cc1cccc(F)c1-c1nc([C@H]2[C@H](c3ccc(S(N)(=O)=O)cc3)C2(C)C)no1 [Example H6]
100 to 500 nM | 390 nM | NS(=O)(=O)c1ccc([C@H]2[C@H](c3ncc(C4CCCC4)o3)C2(F)F)cc1 [Example K13]
500 to 5000 nM | 2900 nM | CC1(C)C(c2ccc(S(N)(=O)=O)cc2)C1c1cc(-c2cccc(F)c2)on1 (racemic) [Example M6]

EC50 [1] | EC50 [2] | Compound
100 to 500 nM | 370 nM | NS(=O)(=O)c1ccc([C@@H]2[C@@H](c3nc(C4CCCC4)no3)C2(F)F)cc1 [Example B19]
≤ 100 nM | 96 nM | CC1(C)[C@@H](c2ccc(S(N)(=O)=O)cc2)[C@@H]1c1noc(C2CCc3cc(F)ccc32)n1 (some centres unmarked) [Example I3]
500 to 5000 nM |  | CC1(C)[C@@H](c2ccc(S(N)(=O)=O)cc2)[C@@H]1c1noc(-c2ccc(OC(F)(F)F)cc2)n1 [Example H13]
100 to 500 nM |  | NS(=O)(=O)c1ccc([C@@H]2C[C@H]2c2nsc(C3CCCCC3)n2)cc1 [Example L11]
5000 to 50000 nM |  | NS(=O)(=O)c1ccc([C@H]2C[C@@H]2c2nc(-c3cncc(F)c3)no2)cc1 [Example B5]
100 to 500 nM | 380 nM | CC1(C)[C@@H](c2ccc(S(N)(=O)=O)cc2)[C@@H]1c1nc(-c2ccc(F)cc2F)co1 [Example K3]
500 to 5000 nM |  | CC1(C)[C@@H](c2ccc(S(N)(=O)=O)cc2)[C@@H]1c1nc(-c2ccc(F)cc2C(F)(F)F)no1 [Example C2]
100 to 500 nM | 150 nM | CC1(C)[C@@H](c2ccc(S(N)(=O)=O)cc2)[C@@H]1c1nc(C2CCCCC2)no1 [Example D3]
100 to 500 nM | 120 nM | NS(=O)(=O)c1ccc([C@@H]2C[C@H]2c2nc(-c3ccccc3)no2)cc1 [Example C5]
500 to 5000 nM |  | COc1ccc(Cl)cc1-c1noc(C2C(c3ccc(S(N)(=O)=O)cc3)C2(F)F)n1 (centres unmarked) [Example E2]
500 to 5000 nM | 1300 nM | CC1(C)[C@H](c2ccc(S(N)(=O)=O)cc2)[C@H]1c1noc(N2CCCCC2)n1 [Example L20]
100 to 500 nM | 230 nM | NS(=O)(=O)c1ccc([C@@H]2C[C@H]2c2nc(-c3cccc(F)c3)no2)cc1 [Example 4, 4-((1R,2R)-2-(3-(3-Fluorophenyl)-1,2,4-oxadiazol-5-yl)cyclopropyl)benzenesulfonamide]
500 to 5000 nM |  | CC1(C)[C@@H](c2ccc(S(N)(=O)=O)cc2)[C@@H]1c1nnc(-c2cccnc2C2CC2)o1 [Example G12]
100 to 500 nM |  | NS(=O)(=O)c1ccc([C@@H]2C[C@H]2c2nc(C3CCCC3)co2)cc1 [Example K18]
500 to 5000 nM |  | Cn1ccc(-c2nc([C@H]3[C@H](c4ccc(S(N)(=O)=O)cc4)C3(C)C)no2)c1 [Example I10]
500 to 5000 nM |  | NS(=O)(=O)c1ccc([C@@H]2C[C@H]2c2nc(CC3CC3)no2)cc1 [Example D28]
100 to 500 nM | 140 nM | NS(=O)(=O)c1ccc([C@@H]2C[C@H]2c2nsc(N3CCCCC3)n2)cc1 [Example 29, 4-{(1R,2R)-2-[5-(Piperidin-1-yl)-1,2,4-thiadiazol-3-yl]cyclopropyl}benzenesulfonamide]
500 to 5000 nM |  | CC1(C)[C@@H](c2ccc(S(N)(=O)=O)cc2)[C@@H]1c1noc(CC2CCCO2)n1 (some centres unmarked) [Example I15]
